Measurements published in US10597388B2, “Pyridazinone herbicides” (FMC CORPORATION, priority 2014, dated 2020).

What was measured:
Assay type in all cases: in vivo
[1] = system: ragweed (common ragweed, Ambrosia elatior); test: Test A greenhouse herbicide test, pre- and postemergence
Procedure, shortened: (§1)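 Seeds sown in loam–sand blend got a preemergence directed soil spray of compound in non-phytotoxic solvent with surfactant. Postemergence treatment was given at 2–10 cm, one- to two-leaf stage. After ~10 d in greenhouse, injury was rated visually vs untreated controls, 0 (no effect) to 100 (complete control).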

[2] = system: pigweed (Amaranthus retroflexus); test: as above
Procedure, shortened: as §1

[3] = system: barnyardgrass (Echinochloa crus-galli); test: as above
Procedure, shortened: as §1

[4] = system: wheat (Triticum aestivum); test: as above; details: Postemergence
Procedure, shortened: as §1

corn (Zea mays) = test: as above; details: Postemergence
Procedure, shortened: as §1

kochia (Kochia scoparia) [5] = test: as above
Procedure, shortened: as §1

[6] = system: crabgrass, large (large crabgrass, Digitaria sanguinalis); test: Test C greenhouse herbicide test, pre- and postemergence
Procedure, shortened: (§2)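 Each species was treated both before emergence, in a loam–sand soil mix, and after emergence, as 1- to 4-leaf seedlings in peat-based potting medium. Plants stayed in the greenhouse 13 to 15 d, then were scored from 0 (no effect) to 100 (complete control) relative to controls.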

[7] = system: oilseed rape (Brassica napus); test: as above
Procedure, shortened: as §2

[8] = system: blackgrass (Alopecurus myosuroides); test: Test A greenhouse herbicide test, postemergence
Procedure, shortened: (§3)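 Plants grown in loam soil/sand blend pots were treated postemergence at 2 to 10 cm height, one- to two-leaf stage, with formulated test chemicals. After approximately 10 d in a greenhouse, injury was rated visually against untreated controls on a 0 to 100 scale (0 no effect, 100 complete control).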

[9] = system: galium (catchweed bedstraw, Galium aparine); test: Test A greenhouse herbicide test, postemergence
Procedure, shortened: as §3

kochia (Kochia scoparia) [10] = test: Test C greenhouse herbicide test, postemergence; details: Postemergence
Procedure, shortened: (§4)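 Test chemicals were applied postemergence to greenhouse plants at the 1- to 4-leaf stage (2–18 cm tall) growing in peat/vermiculite medium. After 13–15 d, injury was rated visually against untreated controls on a 0–100 scale (0 = no effect, 100 = complete control).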

[11] = system: oat, wild (wild oat, Avena fatua); test: Test C greenhouse herbicide test, postemergence; details: Postemergence
Procedure, shortened: as §4

[12] = Postemergence, 125 g ai/ha, 0 to 100 scale where 0 is no effect and 100 is complete control
[13] = Postemergence, 500 g ai/ha, visual rating after approx. 10 d, 0 to 100 scale (0 no effect, 100 complete control)
[14] = Preemergence, 125 g ai/ha, 0 to 100 scale where 0 is no effect and 100 is complete control
[15] = Preemergence, 500 g ai/ha, 0 to 100 scale where 0 is no effect and 100 is complete control
[16] = 125 g ai/ha, 0 to 100 scale where 0 is no effect and 100 is complete control
[17] = 500 g ai/ha, visual rating after approx. 10 d, 0 to 100 scale (0 no effect, 100 complete control)
[18] = Postemergence, 31 g ai/ha, scale 0 to 100 (0 no effect, 100 complete control)
[19] = Postemergence, 125 g ai/ha, scale 0 to 100, 0 is no effect, 100 is complete control
[20] = Postemergence, 250 g ai/ha, scale 0 to 100, 0 no effect, 100 complete control, 13 to 15 d
[21] = Preemergence, 31 g ai/ha, scale 0 to 100, 0 is no effect, 100 is complete control
[22] = Preemergence, 62 g ai/ha, scale 0 to 100, 0 is no effect, 100 is complete control
[23] = Preemergence, 125 g ai/ha, scale 0 to 100, 0 is no effect, 100 is complete control
[24] = Preemergence, 250 g ai/ha, scale 0 to 100 (0 no effect, 100 complete control)
[25] = postemergence, 62 g ai/ha, scale 0 to 100, 0 no effect, 100 complete control
[26] = 31 g ai/ha, scale 0 to 100 (0 no effect, 100 complete control)
[27] = 125 g ai/ha, scale 0 to 100, 0 is no effect, 100 is complete control
[28] = 250 g ai/ha, scale 0 to 100, 0 no effect, 100 complete control, 13 to 15 d

## CCC(=O)Oc1c(Cl)nn(C)c(=O)c1-c1c(C)sc2ccc(Cl)cc12 [Compound 111]
[1]; [12]
  Plant response rating, Ragweed: 70
[1]; [13]
  Plant response rating, Ragweed: 100
[1]; [14]
  Ragweed plant response rating: 80
[1]; [15]
  Plant response rating, Ragweed: 90
[2]; [12]
  Plant response rating, Pigweed: 100
[2]; [13]
  Plant response rating, Pigweed: 100
[2]; [14]
  Pigweed plant response rating: 90
[2]; [15]
  Plant response rating, Pigweed: 100
[3]; [12]
  Plant response rating, Barnyardgrass: 40
[3]; [13]
  Plant response rating, Barnyardgrass: 90
[3]; [14]
  Barnyardgrass plant response rating: 70
[3]; [15]
  Plant response rating, Barnyardgrass: 100
[4]; [16]
  Plant response rating, Wheat: 20
[4]; [17]
  Plant response rating, Wheat: 30
Corn (Zea mays); [16]
  Plant response rating, Corn: 0
Corn (Zea mays); [17]
  Plant response rating, Corn: 20
Kochia (Kochia scoparia) [5]; [12]
  Plant response rating, Kochia: 40
Kochia (Kochia scoparia) [5]; [13]
  Plant response rating, Kochia: 90
Kochia (Kochia scoparia) [5]; [14]
  Kochia plant response rating: 60
Kochia (Kochia scoparia) [5]; [15]
  Plant response rating, Kochia: 100
[6]; [18]
  Plant response rating, Crabgrass, Large: 10
[6]; [19]
  Plant response rating, Crabgrass, Large: 25
[6]; [20]
  Plant response rating, Crabgrass, Large: 25
[6]; [21]
  Plant response rating, Crabgrass, Large: 5
[6]; [22]
  Plant response rating, Crabgrass, Large: 5
[6]; [23]
  Plant response rating, Crabgrass, Large: 85
[6]; [24]
  Crabgrass, Large plant response rating: 80
[6]; [25]
  Crabgrass, Large plant response rating: 20
[7]; [18]
  Plant response rating, Oilseed Rape: 80
[7]; [19]
  Plant response rating, Oilseed Rape: 95
[7]; [20]
  Plant response rating, Oilseed Rape: 100
[7]; [21]
  Plant response rating, Oilseed Rape: 0
[7]; [22]
  Plant response rating, Oilseed Rape: 98
[7]; [23]
  Plant response rating, Oilseed Rape: 100
[7]; [24]
  Oilseed Rape plant response rating: 100
[8]; [16]
  Plant response rating, Blackgrass: 30
[8]; [17]
  Plant response rating, Blackgrass: 70
[9]; [16]
  Plant response rating, Galium: 90
[9]; [17]
  Plant response rating, Galium: 100
Kochia (Kochia scoparia) [10]; [26]
  Plant response rating, Kochia: 80
Kochia (Kochia scoparia) [10]; [27]
  Plant response rating, Kochia: 90
Kochia (Kochia scoparia) [10]; [28]
  Plant response rating, Kochia: 95
[11]; [26]
  Plant response rating, Oat, Wild: 55
[11]; [27]
  Plant response rating, Oat, Wild: 90
[11]; [28]
  Plant response rating, Oat, Wild: 98

## Cc1sc2ccc(Cl)cc2c1-c1c(OS(C)(=O)=O)c(Cl)nn(C)c1=O [Compound 114]
[1]; [12]
  Plant response rating, Ragweed: 70
[1]; [13]
  Plant response rating, Ragweed: 80
[1]; [14]
  Ragweed plant response rating: 80
[1]; [15]
  Plant response rating, Ragweed: 90
[2]; [12]
  Plant response rating, Pigweed: 90
[2]; [13]
  Plant response rating, Pigweed: 90
[2]; [14]
  Pigweed plant response rating: 100
[2]; [15]
  Plant response rating, Pigweed: 100
[3]; [12]
  Plant response rating, Barnyardgrass: 20
[3]; [13]
  Plant response rating, Barnyardgrass: 90
[3]; [14]
  Barnyardgrass plant response rating: 30
[3]; [15]
  Plant response rating, Barnyardgrass: 80
[4]; [16]
  Plant response rating, Wheat: 20
[4]; [17]
  Plant response rating, Wheat: 40
Corn (Zea mays); [16]
  Plant response rating, Corn: 0
Corn (Zea mays); [17]
  Plant response rating, Corn: 30
Kochia (Kochia scoparia) [5]; [12]
  Plant response rating, Kochia: 30
Kochia (Kochia scoparia) [5]; [13]
  Plant response rating, Kochia: 60
Kochia (Kochia scoparia) [5]; [14]
  Kochia plant response rating: 30
Kochia (Kochia scoparia) [5]; [15]
  Plant response rating, Kochia: 100
[6]; [18]
  Plant response rating, Crabgrass, Large: 10
[6]; [19]
  Plant response rating, Crabgrass, Large: 20
[6]; [20]
  Plant response rating, Crabgrass, Large: 25
[6]; [21]
  Plant response rating, Crabgrass, Large: 0
[6]; [22]
  Plant response rating, Crabgrass, Large: 5
[6]; [23]
  Plant response rating, Crabgrass, Large: 75
[6]; [24]
  Crabgrass, Large plant response rating: 80
[6]; [25]
  Crabgrass, Large plant response rating: 20
[7]; [18]
  Plant response rating, Oilseed Rape: 15
[7]; [19]
  Plant response rating, Oilseed Rape: 40
[7]; [20]
  Plant response rating, Oilseed Rape: 80
[7]; [21]
  Plant response rating, Oilseed Rape: 30
[7]; [22]
  Plant response rating, Oilseed Rape: 98
[7]; [23]
  Plant response rating, Oilseed Rape: 100
[7]; [24]
  Oilseed Rape plant response rating: 100
[8]; [16]
  Plant response rating, Blackgrass: 20
[8]; [17]
  Plant response rating, Blackgrass: 60
[9]; [16]
  Plant response rating, Galium: 90
[9]; [17]
  Plant response rating, Galium: 100
Kochia (Kochia scoparia) [10]; [26]
  Plant response rating, Kochia: 30
Kochia (Kochia scoparia) [10]; [27]
  Plant response rating, Kochia: 90
Kochia (Kochia scoparia) [10]; [28]
  Plant response rating, Kochia: 95
[11]; [26]
  Plant response rating, Oat, Wild: 40
[11]; [27]
  Plant response rating, Oat, Wild: 65
[11]; [28]
  Plant response rating, Oat, Wild: 85
